Test results taken from patent US4464378A, “Method of administering narcotic antagonists and analgesics and novel dosage forms containing same” (University of Kentucky Research Foundation, priority 1981, dated 1984).

Tests used:
[1] = 30 μg/rat
[2] = in vivo; conditions: rat, plasma, 0.03 mg; for AUC(0-inf): Area under the blood level curve (AUC ^.infin.0); for AUC(0-inf) / concentration at 1 min / concentration at 0.05 h / concentration at 10 min / concentration at 20 min / concentration at 0.5 h / concentration at 0.75 h / concentration at 1 h / concentration at […] / concentration at 2 h / concentration at 3 h / concentration at 5 min: 30 μg/rat; for concentration at 1 min / concentration at 0.05 h / concentration at 10 min / concentration at 20 min / concentration at 0.5 h / concentration at 0.75 h / concentration at 1 h / concentration at […] / concentration at 2 h / concentration at 3 h / concentration at 5 min: Plasma Level; for concentration at 0.05 h: 3 min; for concentration at 0.5 h: 30 min; for concentration at 0.75 h: 45 min; for concentration at 1 h: 60 min; for concentration at […]: 90 min; for concentration at 2 h: 120 min; for concentration at 3 h: 180 min
[3] = nasal, individual rats I, II, III
[4] = po, Mean, oral (intraduodenal), mean of 3 rats

## C=CCN1CC[C@]23c4c5ccc(O)c4O[C@H]2C(=O)CC[C@@]3(O)[C@H]1C5 [naloxone]
[1]; nasal vs intravenous
  absorption via the nasal route compared with the intravenous route: as effective as via the intravenous route
  areas under the curve following intravenous and nasal administration, compared: not significantly different
  bioavailability when administered nasally compared with intravenously: equivalent to the bioavailability of the drug when administered intravenously
  half-life of elimination after nasal administration compared with intravenous: comparable to its half-life following intravenous nasal administration
[1]; nasal vs oral
  bioavailability when administered nasally compared with the oral route: vastly superior to its bioavailability by the oral route
[1]; nasal
  absorption from the nasal mucosa: very rapidly absorbed from the nasal mucosa
  absorption from the nasal mucosa into the systemic circulation; intestinal or first pass metabolism: rapidly absorbed from the nasal mucosa into the systemic circulation without extensive intestinal or first pass metabolism
[2]
  Tmax: ~5 min
  bioavailability: 1.5%
  half-life: 52.1 min
[2]; Mean, nasal, mean of 3 rats
  AUC(0-inf): 25.3 ng·h/mL
  concentration at 1 min: 23.3 ng/mL
  concentration at 0.05 h: 38.3 ng/mL
  concentration at 10 min: 36 ng/mL
  concentration at 20 min: 19.5 ng/mL
  concentration at 0.5 h: 12 ng/mL
  concentration at 0.75 h: 7.96 ng/mL
  concentration at 1 h: 6.41 ng/mL
  concentration at […]: 3.58 ng/mL
  concentration at 2 h: 2.59 ng/mL
  concentration at 3 h: 1.42 ng/mL
[2]; [3]
  AUC(0-inf): 31.7 ng·h/mL
  concentration at 0.05 h: 41.2 ng/mL
  concentration at 5 min: 54.5 ng/mL
  concentration at 10 min: 45.3 ng/mL
  concentration at 20 min: 22.7 ng/mL
  concentration at 0.5 h: 13.5 ng/mL
  concentration at 0.75 h: 9.36 ng/mL
  concentration at 1 h: 8.26 ng/mL
  concentration at […]: 4.79 ng/mL
  concentration at 2 h: 3.65 ng/mL
  concentration at 3 h: 1.95 ng/mL
[2]; iv
  half-life: 59.2 min
[2]; iv, individual rats I, II, III
  AUC(0-inf): 21.2 ng·h/mL
  concentration at 1 min: 102 ng/mL
  concentration at 0.05 h: 52.3 ng/mL
  concentration at 5 min: 31.4 ng/mL
  concentration at 10 min: 15.6 ng/mL
  concentration at 20 min: 10.3 ng/mL
  concentration at 0.5 h: 7.28 ng/mL
  concentration at 0.75 h: 5.47 ng/mL
  concentration at 1 h: 4.87 ng/mL
  concentration at […]: 3.01 ng/mL
  concentration at 2 h: 2.15 ng/mL
  concentration at 3 h: 1.25 ng/mL
[2]; iv, Mean, mean of 3 rats
  AUC(0-inf): 25 ng·h/mL
  concentration at 1 min: 111 ng/mL
  concentration at 0.05 h: 58 ng/mL
  concentration at 5 min: 37.5 ng/mL
  concentration at 10 min: 19.6 ng/mL
  concentration at 20 min: 11.6 ng/mL
  concentration at 0.5 h: 8.34 ng/mL
  concentration at 0.75 h: 6.74 ng/mL
  concentration at 1 h: 5.41 ng/mL
  concentration at […]: 3.96 ng/mL
  concentration at 2 h: 2.86 ng/mL
  concentration at 3 h: 1.47 ng/mL
[2]; [4]
  AUC(0-inf): 0.367 ng·h/mL
  concentration at 5 min: 0.37 ng/mL
  concentration at 10 min: 0.34 ng/mL
  concentration at 0.75 h: 0.11 ng/mL
  concentration at 1 h: 0.09 ng/mL
  concentration at 2 h: 0.06 ng/mL
